According to patent US6114390A, “Amino acid derivatives, pharmaceutical compositions containing these compounds and processes for preparing them” (Karl Thomae GmbH, priority 1997, dated 2000):
Structures can show the parent of a compound that is named as a salt.

How the values were obtained:
[1] = target: T1, human Y1 -receptor (Homo sapiens, UniProt P25929); assay: Receptor binding to SK-N-MC cells ([125I]-Bolton-Hunter-NPY displacement); details: Table 1
T1 construct: endoge- nously expressing Y1 and Y2 receptors; endogenous in cells; host or cells: SK-N-MC (neuroblastoma) cells
T1 sequence (P25929 1-384): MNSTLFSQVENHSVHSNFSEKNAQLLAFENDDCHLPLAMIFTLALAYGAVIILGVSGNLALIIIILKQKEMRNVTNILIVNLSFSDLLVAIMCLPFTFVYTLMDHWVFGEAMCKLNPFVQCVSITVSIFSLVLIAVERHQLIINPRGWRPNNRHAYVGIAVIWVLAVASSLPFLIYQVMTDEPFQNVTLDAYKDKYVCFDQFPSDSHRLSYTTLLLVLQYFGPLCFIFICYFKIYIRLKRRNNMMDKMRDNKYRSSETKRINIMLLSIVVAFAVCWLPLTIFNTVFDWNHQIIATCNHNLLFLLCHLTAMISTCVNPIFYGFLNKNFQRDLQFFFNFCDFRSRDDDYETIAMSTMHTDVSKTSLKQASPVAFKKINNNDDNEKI
Protocol: Incubation is ended by centrifuging (10 minutes at 3000×gand […].). After washing once with PBS, the radioactivity of the pellet is measured in a gamma counter. […] The proportion of non-specific binding is defined as that radioactivity which is bound in the presence of 1 μM NPY. The IC50 values of the unlabelled test substances are determined graphically.

[2] = system: NPY; assay: NPY-antagonism in vitro, isolated perfused rat kidney; details: NPY 1 μM bolus
Protocol: The abdomen is opened along the centre of the body and the left kidney is removed after the insertion of catheters in the renal artery, renal vein and ureter. The isolated kidney is immediately perfused with a modified Krebs-Ringer solution having the following composition (4 ml/minute):
The perfusion pressure is measured continuously using a pressure gauge. After a 60 minute stabilisation period the perfusion rate is adjusted so as to obtain a perfusion pressure of approximately 100 mm Hg. After a further 30 minutes the experiment is started and NPY (1μM) is administered as a bolus (0.1 ml) at 15 minute intervals until the pressure increase observed reaches a constant value. The compounds to be tested are given in the form of a continuous infusion over a period of 5 minutes and then NPY is injected. After a 30 minute wash-out period the next highest concentration of test substance is investigated. 3 to 5 different concentrations of the particular compound are tested on each occasion. Concentration/activity curves can be obtained by plotting the percentage inhibition of the NPY activity against the logarithm of the concentration (mol/1) of the compound.

[3] = system: NPY; assay: In vivo NPY-antagonism, NPY-induced blood pressure effects in pithed rats; details: Rattus norvegicus, iv, 1 min, NPY 10 μg/kg i.v., diastolic blood pressure, read-out: pIC50 (in vivo NPY-antagonism) (converted)
Protocol: After intubation of the trachea the animals are pithed by introducing a blunt needle through the eye into the spinal bone marrow channel. The animals are ventilated with oxygen-rich ambient air using a respiratory pump (20 strokes/minute). A cannula is inserted in the left carotid artery and the arterial blood pressure is measured using a pressure gauge (Braun Melsungen Combitrans) connected to a recording device. For injection purposes a catheter is placed in the left jugular vein through which heparin is administered (200 IU/kg, i.v.). After the blood pressure has been stabilised, the animals are given 2 bolus injections of NPY (10 μg/kg, i.v.) at intervals of 15 minutes. The average increase in diastolic blood pressure is taken as the reference value (=100%). The test substances are injected in increasing doses (4 to 6 doses) at intervals of 15 minutes. One minute after administration of the test substance, NPY is administered.
The antagonistic effect of the test substances is determined by plotting the percentage inhibition of the NPY-induced blood pressure effects against the logarithm of the concentration of active substance.

[4] = system: NPY induced food intake; assay: Food intake in satiated rats after NPY application to the PVN; type: in vivo, rat
Protocol: For these determinations food intake was measured in normal satiated rats after application of NPY to the paraventricular nucleus (PVN) in the presence or absence of the test compound. […] The rats were individually housed in stainless steel cages where water and food were available ad libitum.
Rats under Pentobarbital anaesthesia were stereotactically implanted with a stainless steel double guide cannula targeted bilaterally at the PVNs. Stereotactic coordinates were: -1.8mm caudal, 0.5mm lateral to bregma and 7.0 mm below the skull surface. Injection cannulae extended the guide cannulae by 1 mm. Animals were allowed to recover from surgery for at least 10 days before being used in the experiments. Rats were handled and mock-injected during the […] recovery period to habituate them to the injection procedure.
Animals treated with both test compounds and NPY were treated first with the test compound. Then, 15 min. after PVN infusion of the test compound or vehicle (control) 1 μg of NPY was administered by PVN infusion.
Food intake was measured by placing preweighed pellets into the cages at the time of NPY injection. Pellets were removed from the cage at 2 h post NPY injection. The food intake of animals treated with test compound was calculated as a percentage of the food intake of control animals, i.e., animals treated with vehicle.

Row | Compound | IC50 [1] [nM] | further results
1 | CN(C)C(=O)NCc1ccc(CNC(=O)[C@@H](CCCNC(=N)N)NC(=O)C(c2ccccc2)c2ccccc2)cc1 [I, (R)-N-[[4-(Dimethylaminocarbonylaminomethyl)phenyl]methyl]-N^2-(diphenylacetyl)-argininamide-bis-(trifluor-acetate)] | 1.5 | –
2 | CCOC(=O)NC(=O)NCc1ccc(CNC(=O)[C@@H](CCCNC(=N)N)NC(=O)C(c2ccccc2)c2ccccc2)cc1 [H, (R)-N^2-(Diphenylacetyl)-N-[[4-(ethoxycarbonylamino-carbonylaminomethyl)phenyl]methyl]-argininamide-trifluor-acetate] | 1.1 | –
3 | N=C(N)NCCC[C@@H](NC(=O)Nc1ccc(Cl)c(Cl)c1)C(=O)NCc1ccc(CNC(N)=O)cc1 [K] | 1.8 | –
4 | Neuropeptide Y [NPY, reference compound] | – | two hour food intake induced by NPY ([4]; NPY 1 μg, versus 0.5 g with vehicle): 3.5 g
5 | N=C(N)NCCC[C@@H](NC(=O)C(c1ccc(O)cc1)c1ccc(O)cc1)C(=O)NCc1ccc(CNC(N)=O)cc1 [A] | – | % Inhibition of food intake ([4]; 30 μg, PVN, 2 h, 1 μg NPY): 32%; Food intake following NPY application ([4]; 30 μg, PVN, 2 h, 1 μg NPY): 2.40 g/animal
6 | CN(CCCC(NC(=O)C(c1ccccc1)c1ccccc1)C(=O)NCc1ccc(O)cc1)C(=N)N (racemic) [Compound E, (R,S)-N^5-(Aminoiminomethyl)-N^2-(diphenylacetyl)-N-[(4-hydroxyphenyl)methyl]-N^5-methyl-ornithinamide-hydrochloride] | – | pIC50 (NPY-antagonism in vitro) [2]: 8.41; ED50 [3]: 0.0135 µmol/kg

Second part, led by results:

Row | IC50 [1] [nM] | Compound | further results
7 | 3.45 | N=C(N)NCCC[C@@H](NC(=O)CC(c1ccccc1)c1ccccc1)C(=O)NCc1ccc(CNC(N)=O)cc1 [O, (R)-N-[[4-(Aminocarbonylaminomethyl)phenyl]methyl]-N^2-(3,3-diphenyl-1-oxopropyl)-argininamide] | –
8 | 3 | N=C(N)NCCC[C@@H](NC(=O)C(c1ccccc1)c1ccccc1)C(=O)OCc1ccc(CNC(N)=O)cc1 [M, (R)-N^2-(Diphenylacetyl)-arginine-[4-(aminocarbonylamino-methyl)phenyl]methylester-trifluoracetate] | –
9 | 4.5 | N=C(N)NCCC[C@@H](NC(=O)Cc1cc(Cl)c(N)c(Cl)c1)C(=O)NCc1ccc(CNC(N)=O)cc1 [R, (R)-N-[[4-(Aminocarbonylaminomethyl)phenyl]methyl]-N^2-[(4-amino-3,5-dichlorphenyl)acetyl]-argininamide-tri-fluoracetate] | –
10 | 2.2 | COC(=O)COc1ccc(C(C(=O)N[C@H](CCCNC(=N)N)C(=O)NCc2ccc(CNC(N)=O)cc2)c2ccc(O)cc2)cc1 (stereo partly drawn) [L] | –
11 | 4.25 | CCOC(=O)NCc1ccc(CNC(=O)[C@@H](CCCNC(=N)N)NC(=O)C(c2ccccc2)c2ccccc2)cc1 [Q, (R)-N^2-(Diphenylacetyl)-N-[[4-(ethoxycarbonylamino-methyl)phenyl]methyl]-argininamide-trifluoracetate] | pIC50 (NPY-antagonism in vitro) [2]: 7.77; ED50 [3]: 0.162 µmol/kg
12 | 28.3 | NC(=O)Cc1ccc(CNC(=O)[C@@H](CCCNc2ncc[nH]2)NC(=O)C(c2ccccc2)c2ccccc2)cc1 [S, (R)-N-[[4-(Aminocarbonylmethyl)phenyl]methyl]-N^2-(diphenylacetyl)-N^5-(1H-imidazol-2-yl)-ornithinamide-hydroiodide] | –
13 | 3.5 | CN(Cc1ccc(CNC(N)=O)cc1)C(=O)[C@@H](CCCNC(=N)N)NC(=O)C(c1ccccc1)c1ccccc1 [P, (R)-N-[[4-(Aminocarbonylaminomethyl)phenyl]methyl]-N^2-(diphenylacetyl)-N-methyl-argininamide-acetate] | –
14 | 3.4 | COc1ccc2cc(C(=O)N[C@H](CCCNC(=N)N)C(=O)NCc3ccc(CNC(N)=O)cc3)ccc2c1 [N, (R)-N-[[4-(Aminocarbonylaminomethyl)phenyl]methyl]-N^2-(6-methoxy-2-naphthoyl)-argininamide-acetate] | –
